Measured values published in patent publication US9505713B2, “High-purity sodium p-styrenesulfonate with excellent hue, method for producing the same, poly(sodium p-styrenesulfonate) with excellent hue using the same, and dispersant and synthetic starch for clothing finishing using the poly(sodium p-styrenesulfonate)” (TOSOH ORGANIC CHEMICAL CO., LTD., priority 2012, dated 2016).
Values joined by “and” are separate entries in the source; they are usually repeats but may differ in a detail not shown here. Equal values may be shown once.

What was measured:
Format in all cases: physicochemical
[1] = APHA values of 15 wt % aqueous sodium p-styrenesulfonate and poly(sodium p-styrenesulfonate) solutions; conditions: 15 wt % aqueous solution of the monomer
Description: <Measurement of APHA values of Aqueous Sodium p-Styrenesulfonate and Aqueous Poly(Sodium p-Styrenesulfonate) Solutions>
After a color-difference meter (manufactured by Nippon Denshoku Industries Co., Ltd., C-106) was switched on and stabilized for 30 minutes, a measuring method was changed to transmission, and a light projection lens (30 mm in diameter) and a sample stand (30 mm in diameter) were attached thereto. A standard white plate and a 0-CAL plate were set, and zero calibration was performed. After water was poured in a square cell and standard calibration was performed, 15 wt % aqueous sodium p-styrenesulfonate solution and 15 wt % aqueous poly(sodium p-styrenesulfonate) solution samples were each transferred into the square cell, and set, followed by reading the APHA values (converted from a calibration curve prepared by using standard solutions having APHA values of 0 to 500).

[2] = Measurement of particle size distribution (laser diffraction/scattering, Microtrack HRA)
Description: <Measurement of Particle Size Distribution>
In a 30-ml glass sample bottle, 0.55 g of a sample and 15.0 g of isopropanol were collected, and treated with an ultrasonic washer for 4 minutes while keeping the temperature at 25° C. or less to prepare a slurry. Thereafter, the particle size (median diameter) distribution was measured under the following conditions, using a laser diffraction/scattering type particle size analyzer, Microtrack HRA (manufactured by Nikkiso Co., Ltd.).
Particle transparency=Transp
Particle refractive Index=1.55
Fluid refractive Index=1.38

[3] = Whiteness and yellowness of sodium p-styrenesulfonate powder with color-difference meter; conditions: sodium p-styrenesulfonate crystal powder
Description: <Measurement of Whiteness and Yellowness of Sodium p-Styrenesulfonate with Color-Difference Meter>
After a color-difference meter (manufactured by Nippon Denshoku Industries Co., Ltd., C-106) was switched on and stabilized for 30 minutes, a light projection lens (30 mm in diameter) and a sample stand (30 mm in diameter) were attached thereto, and standard adjustment was performed. In a cell, 3.0 g of a sample was weighed, and a weight of 1 kg was placed thereon for 30 seconds. Thereafter, it was confirmed that there were no space and no wrinkles at a bottom portion of the cell. Measurement was made with the color-difference meter to read the whiteness (WI value) and the yellowness (YI value).

[4] = Measurement of rate of dissolution (solubility in water); conditions: 25° C.
Description: (§1) The repose angle is calculated by the following equation. […] A=(180−a)/2 wherein A is the repose angle (degrees) and a is the vertical angle (degrees) of the circular cone. <Measurement of Rate of Dissolution (Solubility in Water)>
In a 20-ml glass sample bottle (27 mm in outer diameter×55 mm in depth), 1.00 g of a sodium p-styrenesulfonate powder (wet powder containing impurities and water) was accurately weighed in a temperature-controlled room of 25° C., and thereafter, 9.00 g of ion-exchanged water was quickly added thereto. Then, the sample bottle was turned upside down with a period of one cycle per second, and the time before dissolution of sodium p-styrenesulfonate was visually judged.

[5] = Measurement of repose angle (fluidity of powder)
Description: <Measurement of Repose Angle>
(1) Instruments and Apparatus
1) On a dish, 80 g of a sample is naturally dropped through a funnel of the apparatus.
2) The vertical angle (a) of a circular cone formed on the dish is read with the protractor up to a digit of an integer.
3) This operation is repeated 3 times, and the average value of the vertical angle (a) of the circular cone is determined.
as §1

[6] = listed as sodium p-styrenesulfonate A
[7] = sodium p-styrenesulfonate powder, Table 1
[8] = 1.00 g powder in 9.00 g ion-exchanged water, Table 1
[9] = sodium p-styrenesulfonate powder, Table 1, smaller = better fluidity
[10] = listed as sodium p-styrenesulfonate B
[11] = after purification, Table 2, 1.00 g in 9.00 g water
[12] = before purification, Table 2, 1.00 g in 9.00 g water

Solution APHA value (hue of sodium p-styrenesulfonate) [1]	Median diameter [2, 7]	Small particles less than 10.00 μm [2, 7] [%]	Whiteness (WI value) [3]	Yellowness (YI value) [3]	Rate of dissolution (dissolution time in water) [4, 8] [s]	Repose angle [5, 9] [deg]	Median diameter ([2]; before purification, Table 2)	Small particles less than 10.00 μm ([2]; before purification, Table 2) [%]	Rate of dissolution (dissolution time in water) [4, 12] [s]	Repose angle ([5]; before purification, Table 2) [deg]	also measured	SMILES
220	20.2 μm	12.6	90.2	16.5	132	60					Solution APHA value (hue of sodium p-styrenesulfonate) [1, 6]: 220; Whiteness (WI value) [3, 6]: 90.2; Yellowness (YI value) [3, 6]: 16.5	C=Cc1ccc(S(=O)(=O)[O-])cc1.[Na+] [Comparative Example 1, sodium p-styrenesulfonate]
150	21.5 μm	12.1	93.5	12.5	123	59						C=Cc1ccc(S(=O)(=O)[O-])cc1.[Na+] [Comparative Example 3, sodium p-styrenesulfonate]
120	20.6 μm	14.3	93.0	10.1	126	60						C=Cc1ccc(S(=O)(=O)[O-])cc1.[Na+] [Comparative Example 4, sodium p-styrenesulfonate]
200	21.3 μm	12.7	91.0	16.0	122	59					Solution APHA value (hue of sodium p-styrenesulfonate) [1, 10]: 200; Whiteness (WI value) [3, 10]: 91.0; Yellowness (YI value) [3, 10]: 16.0	C=Cc1ccc(S(=O)(=O)[O-])cc1.[Na+] [Comparative Example 6, sodium p-styrenesulfonate]
							19.8 μm	13.6	130	59	Median diameter ([2]; after purification, Table 2): 22.3 μm; Small particles less than 10.00 μm ([2]; after purification, Table 2): 3.1%; Rate of dissolution (dissolution time in water) [4, 11]: 128 s; Repose angle ([5]; after purification, Table 2): 58 deg	C=Cc1ccc(S(=O)(=O)[O-])cc1.[Na+] [Comparative Example 7, sodium p-styrenesulfonate]
							160 μm and 160.0 μm	0.0	270	45		C=Cc1ccc(S(=O)(=O)[O-])cc1.[Na+] [Comparative Example 8, sodium p-styrenesulfonate]
							22.0 μm	12.5	127	59	Median diameter ([2]; after purification, Table 2): 25.1 μm; Small particles less than 10.00 μm ([2]; after purification, Table 2): 1.6%; Rate of dissolution (dissolution time in water) [4, 11]: 130 s; Repose angle ([5]; after purification, Table 2): 58 deg	C=Cc1ccc(S(=O)(=O)[O-])cc1.[Na+] [Comparative Example 9, sodium p-styrenesulfonate]
30	81 μm and 81.0 μm	0.5	95.7	5.8	165	46						C=Cc1ccc(S(=O)(=O)[O-])cc1.[Na+] [Example 1, sodium p-styrenesulfonate]
15	63 μm and 63.0 μm	2.0	95.5	2.9	155	49						C=Cc1ccc(S(=O)(=O)[O-])cc1.[Na+] [Example 2, sodium p-styrenesulfonate]
80	18.6 μm	14.3	95.0	7.5	130	59						C=Cc1ccc(S(=O)(=O)[O-])cc1.[Na+] [Example 5, sodium p-styrenesulfonate]
							63.1 μm	1.5	160	47		C=Cc1ccc(S(=O)(=O)[O-])cc1.[Na+] [Example 6, sodium p-styrenesulfonate]
							110 μm and 110.0 μm	0.0	200	43		C=Cc1ccc(S(=O)(=O)[O-])cc1.[Na+] [Example 7, sodium p-styrenesulfonate]
							37 μm and 37.0 μm	3.1	140	51		C=Cc1ccc(S(=O)(=O)[O-])cc1.[Na+] [Example 8, sodium p-styrenesulfonate]
											Median diameter ([2]; after purification, Table 2): 48 μm and 48.0 μm; Small particles less than 10.00 μm ([2]; after purification, Table 2): 2.5%; Rate of dissolution (dissolution time in water) [4, 11]: 130 s; Repose angle ([5]; after purification, Table 2): 50 deg	C=Cc1ccc(S(=O)(=O)[O-])cc1.[Na+] [Example 9, sodium p-styrenesulfonate]
